# Structures can show the parent of a compound that is named as a salt.
# Target: T1, EZH2 within the PRC2 complex (Homo sapiens, UniProt Q15910)
# T1 construct: FLAG; made in house; host or cells: Sf9 cells
# Assay: EZH2 methyltransferase scintillation proximity assay (SPA)
# Format: biochemical
# Conditions: methyltransferase activity of EZH2 in human PRC2 complex, 3H-SAM, HeLa mononucleosomes
# Description: Compounds contained herein were evaluated for their ability to inhibit the methyltransferase activity of EZH2 within the PRC2 complex. Human PRC2 complex was prepared by co-expressing each of the 5 member proteins (FLAG-EZH2, EED, SUZ12, RbAp48, AEBP2) in Sf9 cells followed by co-purification. Enzyme activity was measured in a scintillation proximity assay (SPA) where a tritiated methyl group is transferred from 3H-SAM to a lysine residue on Histone H3 of a mononucleosome, purified from HeLa cells. Mononucleosomes were captured on SPA beads and the resulting signal is read on a ViewLux plate reader.
# Part A. Compound Preparation
# • 1. Prepare 10 mM stock of compounds from solid in 100% DMSO. • 2. Set up an 11-point serial dilution (1:3 dilution, top concentration 10 mM) in 100% DMSO for each test compound in a 384 well plate leaving columns 6 and 18 for DMSO controls. • 3. Dispense 100 nL of compound from the dilution plate into reaction plates (Grenier Bio-One, 384-well, Cat#784075). Part B. Reagent Preparation Prepare the following solutions: • 1. 50 mM Tris-HCl, pH 8: Per 1 L of base buffer, combine 1 M Tris-HCl, pH 8 (50 mL) and distilled water (950 mL). • 2. 1× Assay Buffer: Per 10 mL of 1× Assay Buffer, combine 50 mM Tris-HCl, pH 8 (9958 uL), 1 M MgCl2 (20 uL), 2 M DTT (20 uL), and 10% Tween-20 (2 uL) to provide a final concentration of 50 mM Tris-HCl, pH 8, 2 mM MgCl2, 4 mM DTT, 0.002% Tween-20. • 3. 2× Enzyme Solution: Per 10 mL of 2× Enzyme Solution, combine 1× Assay Buffer and PRC2 complex to provide a final enzyme concentration of 10 nM. • 4. SPA Bead Suspension: Per 1 mL of SPA Bead Suspension, combine PS-PEI coated LEADSeeker beads (40 mg) and ddH2O (1 mL) to provide a final concentration of 40 mg/mL. • 5. 2× Substrate Solution: Per 10 mL of 2× Substrate Solution, combine 1× Assay Buffer (9728.55 uL), 800 ug/mL mononucleosomes (125 uL), 1 mM cold SAM (4 uL), and 7.02 uM 3H-SAM (142.45 uL; 0.55 mCi/mL) to provide a final concentration of 5 ug/mL nucleosomes, 0.2 uM cold SAM, and 0.05 uM 3H-SAM. • 6. 2.67× Quench/Bead Mixture: Per 10 mL of 2.67× Quench/Bead Mixture, combine ddH2O (9358 uL), 10 mM cold SAM (267 uL), 40 mg/mL Bead Suspension (375 uL) to provide a final concentration of 100 uM cold SAM and 0.5 mg/mL SPA beads. Part C. Assay Reaction in 384-well Grenier Bio-One Plates Compound Addition • 1. Dispense […] of 100× Compound to test wells (as noted above). • 2. Dispense […] of 100% DMSO to columns 6 & 18 for high and low controls, respectively. Assay • 1. Dispense 5 uL/well of 1× Assay Buffer to column 18 (low control reactions). • 2. Dispense 5 uL/well of 2× Enzyme Solution to columns 1-17, 19-24. • 3. Spin assay plates for ˜1 minute at 500 rpm. • 4. Stack the assay plates, covering the top plate. • 5. Incubate the compound/DMSO with the enzyme for 30 minutes at room temperature. • 6. Dispense 5 uL/well of 2× Substrate Solution to columns 1-24. • 7. Spin assay plates for ˜1 minute at 500 rpm. • 8. Stack the assay plates, covering the top plate. • 9. Incubate the assay plates at room temperature for 1 hour. Quench/Bead Addition • 1. Dispense 5 uL/well of the 3× Quench/Bead Mixture to columns 1-24. • 2. Seal the top of each assay plate with adhesive TopSeal. • 3. Spin assay plates for ˜1 minute at 500 rpm. • 4. Equilibrate the plates for >20 min. Read Plates • 1. Read the assay plates on the Viewlux Plate Reader utilizing the 613 nm emission filter with a 300 s read time. Reagent addition can be done manually or with automated liquid handler. *The final DMSO concentration in this assay is 1%. *The positive control is in column 6; negative control is in column 18. *Final starting concentration of compounds is 100 μM. Part D. Data Analysis
# Percent inhibition was calculated relative to the DMSO control for each compound concentration and the resulting values were fit using standard IC50 fitting parameters within the ABASE data fitting software package.
# T1 sequence (Q15910 whole entry): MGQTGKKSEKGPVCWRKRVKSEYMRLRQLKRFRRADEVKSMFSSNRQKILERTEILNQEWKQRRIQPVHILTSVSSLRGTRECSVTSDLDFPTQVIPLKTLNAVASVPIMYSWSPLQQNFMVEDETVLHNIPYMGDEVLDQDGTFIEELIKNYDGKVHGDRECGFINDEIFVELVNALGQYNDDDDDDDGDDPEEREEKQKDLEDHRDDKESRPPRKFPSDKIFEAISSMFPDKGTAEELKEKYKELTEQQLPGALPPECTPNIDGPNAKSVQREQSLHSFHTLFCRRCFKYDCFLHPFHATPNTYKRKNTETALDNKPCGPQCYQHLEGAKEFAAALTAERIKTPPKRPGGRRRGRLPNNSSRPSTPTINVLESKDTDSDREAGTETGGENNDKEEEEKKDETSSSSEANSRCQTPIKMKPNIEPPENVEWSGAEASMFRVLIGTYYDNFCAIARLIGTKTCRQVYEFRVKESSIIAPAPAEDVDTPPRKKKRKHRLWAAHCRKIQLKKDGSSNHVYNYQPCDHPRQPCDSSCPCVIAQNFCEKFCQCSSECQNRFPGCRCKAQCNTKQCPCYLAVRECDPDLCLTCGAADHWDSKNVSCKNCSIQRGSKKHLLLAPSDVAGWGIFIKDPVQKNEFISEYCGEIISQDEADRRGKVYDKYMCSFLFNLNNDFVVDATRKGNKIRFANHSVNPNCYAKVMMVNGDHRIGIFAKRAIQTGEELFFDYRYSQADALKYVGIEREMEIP
# T1 sequence (O75530 whole entry partner): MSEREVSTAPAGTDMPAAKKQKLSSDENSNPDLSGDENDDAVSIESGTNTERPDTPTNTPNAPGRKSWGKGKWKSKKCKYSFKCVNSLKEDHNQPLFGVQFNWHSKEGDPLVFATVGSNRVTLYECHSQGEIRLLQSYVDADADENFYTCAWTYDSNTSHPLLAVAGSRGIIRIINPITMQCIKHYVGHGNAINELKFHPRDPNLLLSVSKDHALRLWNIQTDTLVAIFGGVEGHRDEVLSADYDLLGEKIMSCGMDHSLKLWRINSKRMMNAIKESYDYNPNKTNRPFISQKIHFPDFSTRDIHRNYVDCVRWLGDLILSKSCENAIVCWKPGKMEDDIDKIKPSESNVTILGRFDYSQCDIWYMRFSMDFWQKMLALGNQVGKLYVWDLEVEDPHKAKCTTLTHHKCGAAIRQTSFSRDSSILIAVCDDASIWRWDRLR
# T1 sequence (Q15022 whole entry partner): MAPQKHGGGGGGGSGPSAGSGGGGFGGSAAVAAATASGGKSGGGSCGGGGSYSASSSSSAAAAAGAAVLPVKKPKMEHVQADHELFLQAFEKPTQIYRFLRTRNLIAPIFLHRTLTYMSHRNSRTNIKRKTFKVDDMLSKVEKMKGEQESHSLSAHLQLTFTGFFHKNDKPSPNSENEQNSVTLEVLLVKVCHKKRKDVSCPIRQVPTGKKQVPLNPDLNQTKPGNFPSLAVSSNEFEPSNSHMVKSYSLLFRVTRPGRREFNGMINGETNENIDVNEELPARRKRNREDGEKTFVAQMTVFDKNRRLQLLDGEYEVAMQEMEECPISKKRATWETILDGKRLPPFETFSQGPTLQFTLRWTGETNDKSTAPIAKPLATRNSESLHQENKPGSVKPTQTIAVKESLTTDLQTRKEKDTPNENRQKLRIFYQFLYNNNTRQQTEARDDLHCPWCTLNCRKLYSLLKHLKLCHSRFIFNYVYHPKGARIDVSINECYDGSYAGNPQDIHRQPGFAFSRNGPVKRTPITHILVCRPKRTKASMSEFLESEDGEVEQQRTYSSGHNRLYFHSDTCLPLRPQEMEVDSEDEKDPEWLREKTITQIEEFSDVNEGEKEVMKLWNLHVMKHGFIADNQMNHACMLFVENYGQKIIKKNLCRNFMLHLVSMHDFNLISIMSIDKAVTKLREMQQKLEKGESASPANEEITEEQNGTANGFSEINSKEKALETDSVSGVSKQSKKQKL
# T1 sequence (Q09028 whole entry partner): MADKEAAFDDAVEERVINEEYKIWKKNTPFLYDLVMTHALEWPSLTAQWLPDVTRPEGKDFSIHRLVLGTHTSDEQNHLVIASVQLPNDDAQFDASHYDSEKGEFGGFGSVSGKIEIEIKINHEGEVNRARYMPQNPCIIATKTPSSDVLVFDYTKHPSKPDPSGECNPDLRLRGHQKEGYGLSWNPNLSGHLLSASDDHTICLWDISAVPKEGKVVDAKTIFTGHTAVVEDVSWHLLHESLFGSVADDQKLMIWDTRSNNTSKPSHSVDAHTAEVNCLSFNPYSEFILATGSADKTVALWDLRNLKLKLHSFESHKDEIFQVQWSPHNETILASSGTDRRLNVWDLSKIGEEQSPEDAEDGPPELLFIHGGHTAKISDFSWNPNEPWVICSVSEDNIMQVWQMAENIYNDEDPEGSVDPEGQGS
# T1 sequence (Q6ZN18 whole entry partner): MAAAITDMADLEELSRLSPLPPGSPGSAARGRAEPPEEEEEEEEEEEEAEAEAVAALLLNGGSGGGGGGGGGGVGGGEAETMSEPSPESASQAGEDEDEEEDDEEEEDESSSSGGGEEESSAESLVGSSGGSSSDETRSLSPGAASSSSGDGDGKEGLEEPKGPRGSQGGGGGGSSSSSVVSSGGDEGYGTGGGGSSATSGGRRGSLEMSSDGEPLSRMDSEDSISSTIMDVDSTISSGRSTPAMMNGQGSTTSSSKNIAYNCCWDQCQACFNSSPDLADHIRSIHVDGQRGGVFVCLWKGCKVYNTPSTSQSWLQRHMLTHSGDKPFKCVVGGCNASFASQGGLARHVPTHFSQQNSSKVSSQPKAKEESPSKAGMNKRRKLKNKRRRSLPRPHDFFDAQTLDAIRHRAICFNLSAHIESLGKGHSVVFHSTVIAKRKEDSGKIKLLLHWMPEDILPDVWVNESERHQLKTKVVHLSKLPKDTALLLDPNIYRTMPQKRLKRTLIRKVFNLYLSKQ
row,IC50 [nM],SMILES
1,5,"CCCc1cc(C)[nH]c(=O)c1CNC(=O)c1cc(-c2ccc(CN(C)C)cc2)cc2c1cnn2C(C)C [Example 33, 6-{4-[(dimethylamino)methyl]phenyl}-1-(1-methylethyl)-N-[(6-methyl-2-oxo-4-propyl-1,2-dihydro-3-pyridinyl)methyl]-1H-indazole-4-carboxamide hydrochloride salt]"
2,20,"CCCc1cc(C)[nH]c(=O)c1CNC(=O)c1cc(-c2ccsc2)cc2c1cnn2C(C)C [Example 31, N-((1,2-dihydro-6-methyl-2-oxo-4-propylpyridin-3-yl)methyl)-1-isopropyl-6-(thiophen-3-yl)-1H-indazole-4-carboxamide]"
3,158,"Cc1cc(C)c(CNC(=O)c2cc(Br)cc3c2cnn3C(C)C)c(=O)[nH]1 [Example 3, 6-Bromo-N-[(4,6-dimethyl-2-oxo-1,2-dihydro-3-pyridinyl)methyl]-1-(1-methylethyl)-1H-indazole-4-carboxamide]"
4,8,"CCCc1cc(C)[nH]c(=O)c1CNC(=O)c1cc(-c2cnc(C)nc2)cc2c1cnn2C(C)C [Example 17, 1-isopropyl-N-((6-methyl-2-oxo-4-propyl-1,2-dihydropyridin-3-yl)methyl)-6-(2-methylpyrimidin-5-yl)-1H-indazole-4-carboxamide]"
5,40,"Cc1cc(Cc2ccccc2)c(CNC(=O)c2cccc3c2cnn3C(C)C)c(=O)[nH]1 [Example 7, 1-(1-methylethyl)-N-{[6-methyl-2-oxo-4-(phenylmethyl)-1,2-dihydro-3-pyridinyl]methyl}-1H-indazole-4-carboxamide]"
6,25,"CCc1cc(C)[nH]c(=O)c1CNC(=O)c1cc(Br)cc2c1cnn2C(C)C [Example 4, 6-bromo-N-((4-ethyl-6-methyl-2-oxo-1,2-dihydropyridin-3-yl)methyl)-1-isopropyl-1H-indazole-4-carboxamide]"

# Source: patent US8846935B2, “Indazoles” (GlaxoSmithKline LLC, priority 2010, dated 2014)
